Earlier results in US20240377385A1, “METHODS AND COMPOSITIONS OF MATTER FOR TREATING CANCER AND PREDICTING RESPONSE TO THERAPY” (ICCA INC., priority 2023, published 2024).

Experiments:
S-180 sarcoma = details: parenteral administration; cited from earlier work
dendritic cells = details: cited from earlier work
vascular cord formation = details: in vivo administration; cited from earlier work
HUVEC = details: in vitro; cited from earlier work
[1] = system: PAIII androgen-independent syngeneic prostate cancer cell line; details: daily intraperitoneal administration for 30 days, evaluation at day 40; cited from earlier work
[2] = system: battery of tumor cell lines; details: in vitro; cited from earlier work
T cell and B cell = details: high dose; in vitro; cited from earlier work
neovascularization = details: cited from earlier work
[3] = system: hypoxia inducible factor (HIF)-1; details: cited from earlier work
NK = details: high dose; cited from earlier work
[4] = system: human xenografted glioma, ovarian, and neuroblastoma cells; details: cited from earlier work
[5] = system: monocytes derived from human peripheral blood; details: 12 hour exposure; cited from earlier work

For `O=C1O[C@H]([C@@H](O)CO)C(O)=C1O` [AA, ascorbic acid], the “angiogenesis and the pro-angiogenic factors bFGF, VEGF, and MMP-2” value (S-180 sarcoma) is listed as “suppression”, the tumor growth (S-180 sarcoma) is listed as “reduced tumor growth” and the “T cell activating ability of dendritic cells” value (dendritic cells) is listed as “inhibit”. For the same molecule, the vascular cord formation (vascular cord formation) was “suppressed vascular cord formation”, the HUVEC proliferation (HUVEC) was “inhibits” and the “pulmonary and lymphatic metastasis” value [1] was “reduction”. The tumor growth [1] was “significant inhibition”, the “cytotoxicity of Docetaxel, Epirubicin, Irinotecan and 5-FU” value [2] was “Enhancement” and the “T cell and B cell proliferative responses as well as IL-2 secretion” value (T cell and B cell) was “inhibits”. The neovascularization (neovascularization) was “suppressing neovascularization”, the “activation of the hypoxia inducible factor (HIF)-1” value [3] was “suppresses activation” and the NK cytotoxic activity (NK) was “inhibits”. For the same molecule, the “in vivo inhibition of xenografted cells” value [4] was “successful in vivo inhibition”.
In the case of `CCOCc1nc2c(N)nc3ccccc3c2n1CC(C)(C)O` [Group R-848, resiquimod], the “FcgammaR-mediated cytokine production and antibody-dependent cellular cytotoxicity by monocytes” value [5] is given as “increased”.
